Test results: the NIST ThermoML archive (doi:10.1021/je1002434)

Key:
[1] = wn = mass fraction of the nth substance listed; settings: for surface tension liquid-gas: Maximal bubble pressure; for mass density: 101 kPa, Liquid, Buoyancy - hydrostatic balance with magnetic suspension - one sinker
[2] = for surface tension liquid-gas: Maximal bubble pressure; for mass density: 101 kPa, Liquid, Buoyancy - hydrostatic balance with magnetic suspension - one sinker

CCCn1cc[n+](C)c1.N[C@@H](CCC(=O)O)C(=O)[O-] + O
[1]
Settings	mass density, w2 = 0.00841 [kg/m3]	mass density, w2 = 0.01002 [kg/m3]	mass density, w2 = 0.01126 [kg/m3]	mass density, w2 = 0.01281 [kg/m3]	mass density, w2 = 0.01404 [kg/m3]	surface tension liquid-gas, w2 = 0.0089 [mN/m]	surface tension liquid-gas, w2 = 0.012 [mN/m]	surface tension liquid-gas, w2 = 0.0151 [mN/m]	surface tension liquid-gas, w2 = 0.0192 [mN/m]	surface tension liquid-gas, w2 = 0.0222 [mN/m]
318.15 K	1204.8	1202	1200.3	1197.4	1195.6	55.2	55.4	55.5	55.7	56
323.15 K	1202.2	1199.3	1197.6	1194.7	1193	53.8	54	54.2	54.4	54.7
328.15 K	1199.5	1196.7	1195	1192	1190.4	52.5	52.6	52.8	53.1	53.4
333.15 K	1196.9	1194	1192.3	1189.4	1187.7	50.7	51.2	51.4	51.7	51.9
338.15 K	1194.3	1191.4	1189.6	1186.7	1185	49.4	49.9	50.2	50.4	50.7
343.15 K	1191.6	1188.7	1187	1184.1	1182.4	–	–	–	–	–

CCCn1cc[n+](C)c1.N[C@@H](CCC(=O)O)C(=O)[O-]
[2]
Settings	mass density [kg/m3]	surface tension liquid-gas [mN/m]
298.15 K	1229.2	60.8
318.15 K	1218.6	54.7
323.15 K	1215.9	53.2
328.15 K	1213.2	51.8
333.15 K	1210.6	50.1
338.15 K	1208.2	48.7
343.15 K	1205.3	–
